Consider 4 molecules from US20220265659A1, “METHODS AND COMPOSITIONS FOR TREATING PAX6-DEFICIENCY RELATED DISEASE” (INSERM (INSTITUT NATIONAL DE LA SANTÉ ET DE AL RECHERCHE …, priority 2019, published 2022).

Test [1] deals with PAX6-target gene expression. As to the kind of experiment: qRT-PCR analysis of PAX6-target gene expression in rescue experiments. Format: cell-based, Human. The settings on record: mutated limbal stem cells. As to the method: (§1) Cells and culture conditions: Human mutated limbal epithelial stem cells (mut-LSCs) were obtained by genome editing (Crispr/cas9) of primary limbal stem cells, as described in Roux et al. (Roux, 2018 Stem cells). mut-LSCs and WT controls were cultured, as described earlier (Roux, 2018 Stem cells), in Keratinocyte serum-free medium (K-sfm) (Gibco™, Life Technologies), supplemented with 25 μg/mL Bovine Pituitary Extract (BPE; Gibco™, Life Technologies), 0.2 ng/mL Epidermal Growth Factor (EGF, Peprotech), 0.4 mM CaCl2, 2 mM Glutamine (Gibco™, Life Technologies) and 100 U/mL Penicillin/Streptomicin (Gibco™, Life Technologies). Routine subcultures were obtained by detaching cells with StemPro™ Accutase™ Cell Dissociation Reagent (Gibco™, Life Technologies) and replating at 2,000 cells/cm^2 (T-LSCs) or 3,000 cells/cm^2 (PAX6^+/− T-LSCs). All cells were negative for mycoplasma contamination (monthly tested).
(§2) Rescue experiments: Mut-LSCs were treated with each compound (Duloxetine, Ritanserine and Topotecan) directly added into the culture medium from 0.5 μg/mL to 4 μg/mL. No cell toxicity has been observed up to 10 μg/mL. The optimal concentration for each experiment (qRT-PCR, cell migration and cell adhesion) was 0.5 μg/mL. As positive control, 2 μg/mL recombinant PAX6 protein coupled with an 11R-tag (recPAX6, LD Biopharma Inc) was added, as described elsewhere (Roux et al. 2018 Stem cells).
qRT-PCR analysis: Cells were treated for 10 h with either compound or recPAX6 for rescue experiments, and harvested as a dry pellet. RNA was then extracted using RNEasy Mini kit (Qiagen) and cDNA were synthetized from 1 μg RNA using iScript cDNA synthesis kit (Bio-Rad). Quantitative PCR were performed in triplicate using […] SYBR Green PCR Master Mix (Absource Biotools). Expression of each gene was calculated using the 2^−ΔΔCt method. Results are presented as fold change normalized to B2M house-keeping gene and relative to control (treated with protein buffer or untreated) T-LSCs. Specific primers sequences used are listed in Suppl.

Test [2] has as its system mutated limbal stem cells (mut-LSCs). Description: In vitro migration test on IBIDI chambers. It counts as cell-based, Human. The settings on record: for rescue of cell migration: mutated limbal stem cells. As to the method:
as §1
In vitro migration test: WT and mut-LSCs were seeded into culture-inserts 2 well at 25,000 cells per well in 6-well plates (IBIDI®). […] Sixteen hours after plating, the inserts were removed creating a gap of 500 μm between cells. Patches were overlaid with culture medium and closure of the gap was monitored for 10 h, taking pictures at regular time intervals. Gap width was measured using ImageJ 1.49 software (NIH). Results are presented as percent of gap width normalized at 100% at t=0 h.

In another test the test system is Mut-LSCs. Description: Rescue experiments: compound added to the culture medium of Mut-LSCs (cell toxicity, optimal concentration). It counts as cell-based, Human. Conditions: qRT-PCR, cell migration and cell adhesion. As to the method: as §1, §2
(In general: In qPCR the cycle at which signal appears reflects the starting amount.)

The test system of another test is PAX6 protein. As to the kind of experiment: Western blot analysis of PAX6 protein production. Format: cell-based, Human. Details: rescue of PAX6 haploinsufficiency in vitro: unit of the concentration uncertain. Conditions: for rescue of the production of endogenous PAX6 protein: mutated limbal stem cells. As to the method: as §1
[…] No cell toxicity has been observed up to 10 μg/mL. […] As positive control, 2 μg/mL recombinant PAX6 protein coupled with an 11R-tag (recPAX6, LD Biopharma Inc) was added, as described elsewhere (Roux et al. 2018 Stem cells).
Western blot analysis: Cells were harvested as a dry pellet, […] recPAX6 protein or its buffer for rescue experiments, lysed in RIPA buffer supplemented with Protease and Phosphatase Inhibitor Cocktail EDTA-Free (Roche) for 15 min on ice and centrifuged for 15 min at 4° C. at 15,000×g. Protein concentration was measured using Pierce BCA Protein Assay kit (Thermo Fisher Scientific) following manufacturer instructions. Thirty micrograms of total protein or 10 ng of recPAX6 protein were loaded on a SDS-PAGE gel (10%), transferred to nitrocellulose membranes using semi-dry method. Membranes were pre-stripped using Re-Blot Plus Strong solution (EMD Millipore) for 15 min, blocked twice for 5 min in 5% milk solution and incubated in primary antibody (PAX6, ab2237, Millipore, 1/1,000) overnight at 4° C. After 3 washing of 10 min in TBS with 0.2% Tween (TBS-T), membranes were incubated for 1 h with secondary antibody (Goat anti-rabbit HRP, BD Pharmingen) diluted in TBS-T 5% milk solution at 1/1,000. Proteins were visualized using chemiluminescence detection (Clarity™ Western ECL Substrate, Bio-Rad) on a gel imaging system (ImageQuant LAS 4000). Membranes were stripped again, incubated 90 min at room temperature with ACTIN (sc1615, 1/500, Santa Cruz) antibody diluted in TBS-T 5% milk, washed 3×10 min in TBS-T and incubated for 1 h in secondary antibody (Rabbit anti-goat HRP, 1/20,000, Jackson ImmunoResearch) at room temperature before revelation. Signal quantifications were made using ImageJ 1.49 software (NIH). Results are presented after ACTIN normalization.
For orientation: In western blotting, separated proteins are transferred to a membrane and probed.

The subject of another test is PAX6. Description: qRT-PCR analysis for PAX6 expression with amplicon sequencing. Format: cell-based, Human. Here is the method: as §1, with “T-LSCs).” for “T-LSCs). All cells were negative for mycoplasma contamination (monthly tested).”
qRT-PCR analysis: Cells were treated for 10 h with either compound or recPAX6 for rescue experiments, and harvested as a dry pellet. RNA was then extracted using RNEasy Mini kit (Qiagen) and cDNA were synthetized from 1 μg RNA using iScript cDNA synthesis kit (Bio-Rad). Quantitative PCR were performed in triplicate using […] SYBR Green PCR Master Mix (Absource Biotools). Expression of each gene was calculated using the 2^−ΔΔCt method. […] Specific primers sequences used are listed in Suppl.

Test [3] concerns limbal stem cells (mut-LSC). Conditions: mut-LSC with a nonsense mutation found in patients; cited from earlier work.

Regarding `CNCC[C@H](Oc1cccc2ccccc12)c1cccs1` [Duloxetine, duloxetine], the “rescue of PAX6-target gene expression” value in test [1] is listed as “able to rescue”. In addition, in test [2], the “rescue of cell migration” value is on record as “able to rescue”. In the test on Mut-LSCs, the “optimal concentration for each experiment” value (from here on “optimal concentration”) was determined as 0.5 µg/mL. In the test with PAX6 protein (FIG. 5: W mutant limbal cells), the PAX6 protein production entry was “rescued”. In the test on PAX6 protein, the “rescue of the production of endogenous PAX6 protein” value (from here on “rescue … of endogenous PAX6 protein”) is “able to rescue”.

On to `Cc1nc2sccn2c(=O)c1CCN1CCC(=C(c2ccc(F)cc2)c2ccc(F)cc2)CC1` [Ritanserine, ritanserin], for which the “rescue of PAX6-target gene expression” value in test [1] is on record as “able to rescue”. For the same molecule, the “rescue of cell migration” value in test [2] is given as “able to rescue”. Also, in the test on Mut-LSCs, the “optimal concentration” value was 0.5 µg/mL. Besides, the PAX6 protein production entry with PAX6 protein (FIG. 4: mutated LT (W) cells, western blot, 0.5, 1 or 5 mM) was “rescued”. Also, the “rescue … of endogenous PAX6 protein” value in the test on PAX6 protein is listed as “able to rescue”.

For the molecule `CC[C@@]1(O)C(=O)OCc2c1cc1n(c2=O)Cc2cc3c(CN(C)C)c(O)ccc3nc2-1` [Topotecan, topotecan], in test [1], the “rescue of PAX6-target gene expression” value is “able to rescue”. Further, the “rescue of migration of mutated limbal cells” value in test [2] (FIG. 2: mut-LT, 0.5 µg/mL, 2 h before migration start, IBIDI chambers) is given as “can rescue”. Further, the “rescue of cell migration” value in test [2] was “able to rescue”. For the same molecule, the “optimal concentration” value in the test with Mut-LSCs was determined as 0.5 µg/mL. In the test with PAX6 (FIG. 3: mut-LSCs + Topotecan), the “amplification of the mutated allele (amplicons sequenced)” value was “did not identified any amplification”. Further, the “WT allele transcription (PAX6 expression by qRT-PCR)” value in the test with PAX6 (FIG. 3: mutated cells (mut-LSC)) is “activates”. In the test on PAX6 (FIG. 3: treated WT-LSCs (normal LSCs)), the “PAX6 expression by qRT-PCR” value is recorded as “not enhanced”. Also, the “rescue of PAX6 gene expression at the RNA level” value in the test with PAX6 (mutated limbal stem cells) is recorded as “able to rescue”. The “rescue of PAX6 haploinsufficiency in vitro” value with PAX6 protein (FIG. 1: mut-LT limbal stem cells, 0.5 (unit uncertain), 10 h, qRT-PCR for PAX6-target gene expression (A), western blot for PAX6 protein (B)) was “can rescue”. Moreover, the “rescue … of endogenous PAX6 protein” value in the test on PAX6 protein is reported as “able to rescue”.

Take “recombinant PAX6 protein: recombinant PAX6 protein coupled with an 11R-tag (recPAX6, LD Biopharma Inc), positive control”: the “rescue of altered PAX6 target gene expression, cell adhesion, cell migration and proliferation” value in test [3] is “rescued”.
